≈ marks a conversion by molar mass, not a printed value.
Legend:
Staphylococcus aureus [1] = test: Antibacterial activity against methicillin-sensitive Staphylococcus aureus 14-2; assay type: functional
Staphylococcus aureus [2] = test: Antibacterial activity against methicillin-resistant Staphylococcus aureus 14-5; assay type: functional
Staphylococcus aureus [3] = test: Antibacterial activity against methicillin-resistant Staphylococcus aureus 14-2; assay type: functional
Escherichia coli [4] = test: Antibacterial activity against Escherichia coli 14-1 expressing extended-spectrum beta-lactamase; assay type: functional
[5] = system: Staphylococcus epidermidis; test: Antibacterial activity against methicillin-resistant Staphylococcus epidermidis 14-4; assay type: functional
Enterococcus faecalis [6] = test: Antibacterial activity against Enterococcus faecalis 14-5; assay type: functional
Enterococcus faecalis [7] = test: Antibacterial activity against Enterococcus faecalis 14-1; assay type: functional
Staphylococcus aureus [8] = test: Antibacterial activity against methicillin-sensitive Staphylococcus aureus 14-3; assay type: functional
Escherichia coli [9] = test: Antibacterial activity against Escherichia coli 14-2 expressing extended-spectrum beta-lactamase; assay type: functional
[10] = system: Staphylococcus epidermidis; test: Antibacterial activity against methicillin-sensitive Staphylococcus epidermidis 14-3; assay type: functional
Staphylococcus aureus [11] = test: Antibacterial activity against methicillin-sensitive Staphylococcus aureus 14-4; assay type: functional
[12] = system: Staphylococcus epidermidis; test: Antibacterial activity against methicillin-resistant Staphylococcus epidermidis 14-1; assay type: functional
[13] = system: Staphylococcus epidermidis; test: Antibacterial activity against methicillin-resistant Staphylococcus epidermidis 14-3; assay type: functional
Enterococcus faecalis [14] = test: Antibacterial activity against Enterococcus faecalis 14-3; assay type: functional
[15] = system: Staphylococcus epidermidis; test: Antibacterial activity against methicillin-sensitive Staphylococcus epidermidis 14-2; assay type: functional
Escherichia coli [16] = test: Antibacterial activity against Escherichia coli 14-2; assay type: functional
Escherichia coli [17] = test: Antibacterial activity against Escherichia coli 14-1; assay type: functional
[18] = system: Staphylococcus epidermidis; test: Antibacterial activity against methicillin-resistant Staphylococcus epidermidis 14-2; assay type: functional
Enterococcus faecalis [19] = test: Antibacterial activity against Enterococcus faecalis 14-2; assay type: functional
[20] = system: Staphylococcus epidermidis; test: Antibacterial activity against methicillin-sensitive Staphylococcus epidermidis 14-1; assay type: functional
Staphylococcus aureus [21] = test: Antibacterial activity against methicillin-resistant Staphylococcus aureus 14-1; assay type: functional
Staphylococcus aureus [22] = test: Antibacterial activity against methicillin-sensitive Staphylococcus aureus 14-1; assay type: functional
Staphylococcus aureus [23] = test: Antibacterial activity against methicillin-resistant Staphylococcus aureus 14-4; assay type: functional
[24] = Cmax in Sprague-Dawley rat at 2 mg/kg, iv; assay type: ADME, organism-based; set-up: dose 2 mg/kg, route intravenous; details: in vivo
[25] = AUC (0 to t) in Sprague-Dawley rat at 2 mg/kg, iv; assay type: ADME, organism-based; details: Sprague-Dawley, in vivo
[26] = Clearance in Sprague-Dawley rat at 2 mg/kg, iv; assay type: ADME, organism-based; details: in vivo
[27] = AUC (0 to infinity) in Sprague-Dawley rat at 10 mg/kg, po; assay type: ADME, organism-based; set-up: dose 10 mg/kg, time infinity, route oral; details: Sprague-Dawley, in vivo
[28] = MRT (0 to t) in Sprague-Dawley rat at 10 mg/kg, po; assay type: ADME, organism-based; details: in vivo
[29] = Half life in Sprague-Dawley rat at 2 mg/kg, iv; assay type: ADME, organism-based; details: in vivo
[30] = Clearance in Sprague-Dawley rat at 10 mg/kg, po; assay type: ADME, organism-based; details: Sprague-Dawley, in vivo
[31] = AUC (0 to t) in Sprague-Dawley rat at 10 mg/kg, po; assay type: ADME, organism-based; details: in vivo
[32] = MRT (0 to t) in Sprague-Dawley rat at 2 mg/kg, iv; assay type: ADME, organism-based; details: in vivo
[33] = AUC (0 to infinity) in Sprague-Dawley rat at 2 mg/kg, iv; assay type: ADME, organism-based; set-up: dose 2 mg/kg, route intravenous, time infinity; details: Sprague-Dawley, in vivo
Rattus norvegicus = test: Volume of distribution at steady state in Sprague-Dawley rat at 10 mg/kg, po; assay type: ADME, organism-based; details: in vivo
[34] = Tmax in Sprague-Dawley rat at 2 mg/kg, iv; assay type: ADME, organism-based; details: in vivo
[35] = Volume of distribution at steady state in Sprague-Dawley rat at 2 mg/kg, iv; assay type: ADME, organism-based; details: in vivo, read-out: Vdss
[36] = Cmax in Sprague-Dawley rat at 10 mg/kg, po; assay type: ADME, organism-based; set-up: dose 10 mg/kg, route oral; details: in vivo
[37] = Tmax in Sprague-Dawley rat at 10 mg/kg, po; assay type: ADME, organism-based; details: in vivo
[38] = Half life in Sprague-Dawley rat at 10 mg/kg, po; assay type: ADME, organism-based; details: Sprague-Dawley, in vivo
[39] = Oral bioavailability in Sprague-Dawley rat at 10 mg/kg; assay type: ADME, organism-based; details: in vivo

| SMILES | MIC (Staphylococcus aureus [1]) | MIC (Staphylococcus aureus [2]) | MIC (Staphylococcus aureus [3]) | MIC (Escherichia coli [4]) | MIC [5] | MIC (Enterococcus faecalis [6]) | MIC (Enterococcus faecalis [7]) | MIC (Staphylococcus aureus [8]) | MIC (Escherichia coli [9]) | MIC [10] | MIC (Staphylococcus aureus [11]) | MIC [12] | MIC [13] | MIC (Enterococcus faecalis [14]) | MIC [15] | MIC (Escherichia coli [16]) | MIC (Escherichia coli [17]) | MIC [18] | MIC (Enterococcus faecalis [19]) | MIC [20] | further results |
| --- | --- | --- | --- | --- | --- | --- | --- | --- | --- | --- | --- | --- | --- | --- | --- | --- | --- | --- | --- | --- | --- |
| CCCC[C@H](CN(O)C=O)C(=O)N1CC2(CC2)C[C@H]1C(=O)Nc1ncccc1F | 0.5 µg/mL (≈ 1.23 µM) | 0.25 µg/mL (≈ 0.615 µM) | 0.5 µg/mL (≈ 1.23 µM) | 2 µg/mL (≈ 4.92 µM) | 0.5 µg/mL (≈ 1.23 µM) | 2 µg/mL (≈ 4.92 µM) | 2 µg/mL (≈ 4.92 µM) | 0.5 µg/mL (≈ 1.23 µM) | 64 µg/mL (≈ 157 µM) | 0.25 µg/mL (≈ 0.615 µM) | 0.5 µg/mL (≈ 1.23 µM) | 0.25 µg/mL (≈ 0.615 µM) | 0.125 µg/mL (≈ 0.308 µM) | 2 µg/mL (≈ 4.92 µM) | 0.25 µg/mL (≈ 0.615 µM) | 64 µg/mL (≈ 157 µM) | > 64 µg/mL | 0.25 µg/mL (≈ 0.615 µM) | 2 µg/mL (≈ 4.92 µM) | 0.125 µg/mL (≈ 0.308 µM) | MIC (Staphylococcus aureus [21]): 0.5 µg/mL (≈ 1.23 µM); MIC (Staphylococcus aureus [22]): 0.5 µg/mL (≈ 1.23 µM); MIC (Staphylococcus aureus [23]): 0.5 µg/mL (≈ 1.23 µM) |
| CCCC[C@H](CN(O)C=O)C(=O)N1CC2(CC2)C[C@H]1c1nc(-c2cccnc2)no1 | 0.5 µg/mL (≈ 1.21 µM) | 0.5 µg/mL (≈ 1.21 µM) | 0.5 µg/mL (≈ 1.21 µM) | 1 µg/mL (≈ 2.42 µM) | 0.5 µg/mL (≈ 1.21 µM) | 2 µg/mL (≈ 4.84 µM) | 2 µg/mL (≈ 4.84 µM) | 0.5 µg/mL (≈ 1.21 µM) | 32 µg/mL (≈ 77.4 µM) | 0.125 µg/mL (≈ 0.302 µM) | 0.5 µg/mL (≈ 1.21 µM) | 0.25 µg/mL (≈ 0.605 µM) | 0.125 µg/mL (≈ 0.302 µM) | 2 µg/mL (≈ 4.84 µM) | 0.5 µg/mL (≈ 1.21 µM) | 64 µg/mL (≈ 155 µM) | 64 µg/mL (≈ 155 µM) | 0.25 µg/mL (≈ 0.605 µM) | 2 µg/mL (≈ 4.84 µM) | 0.125 µg/mL (≈ 0.302 µM) | Cmax [24]: 929 ng/mL; AUC(0-t) [25]: 654 ng·h/mL; clearance [26]: 51.2 mL/min/kg; AUC(0-inf) [27]: 1300 ng·h/mL; MRT last [28]: 101 min; half-life [29]: 66.6 min; CL/F [30]: 136 mL/min/kg; AUC(0-t) [31]: 1280 ng·h/mL; MRT last [32]: 36.6 min; AUC(0-inf) [33]: 657 ng·h/mL; Vdss (Rattus norvegicus): 15.1 L/kg; Tmax [34]: 4.8 min; Vd [35]: 1.9 L/kg; Cmax [36]: 893 ng/mL; Tmax [37]: 15 min; MIC (Staphylococcus aureus [21]): 0.5 µg/mL (≈ 1.21 µM); MIC (Staphylococcus aureus [22]): 0.5 µg/mL (≈ 1.21 µM); half-life [38]: 76.8 min; bioavailability [39]: 40%; MIC (Staphylococcus aureus [23]): 0.5 µg/mL (≈ 1.21 µM) |
| CCCC[C@H](CN(O)C=O)C(=O)N1CC2(CC2)C[C@H]1c1nnc2ccccn12 | 1 µg/mL (≈ 2.59 µM) | 1 µg/mL (≈ 2.59 µM) | 1 µg/mL (≈ 2.59 µM) | 2 µg/mL (≈ 5.19 µM) | 1 µg/mL (≈ 2.59 µM) | 8 µg/mL (≈ 20.8 µM) | 4 µg/mL (≈ 10.4 µM) | 1 µg/mL (≈ 2.59 µM) | 128 µg/mL (≈ 332 µM) | 0.5 µg/mL (≈ 1.3 µM) | 1 µg/mL (≈ 2.59 µM) | 0.5 µg/mL (≈ 1.3 µM) | 0.25 µg/mL (≈ 0.649 µM) | 8 µg/mL (≈ 20.8 µM) | 0.5 µg/mL (≈ 1.3 µM) | 128 µg/mL (≈ 332 µM) | 128 µg/mL (≈ 332 µM) | 0.5 µg/mL (≈ 1.3 µM) | 8 µg/mL (≈ 20.8 µM) | 0.25 µg/mL (≈ 0.649 µM) | MIC (Staphylococcus aureus [21]): 1 µg/mL (≈ 2.59 µM); MIC (Staphylococcus aureus [22]): 1 µg/mL (≈ 2.59 µM); MIC (Staphylococcus aureus [23]): 1 µg/mL (≈ 2.59 µM) |
